Reference: patent US7012128B2, “Interaction between cyclin D1 and steroid receptor co-activators and uses thereof in assays” (TopoTarget UK Limited, priority 1998, dated 2006)

Experiments:
[1] = test system: MCF-7 breast cancer cells; assay: Cell cycle profiles by FACS after transient transfection; format: cell-based; details: transient transfection of MCF-7
Method: Cell cycle profiles were analysed using fluuorescence activated cell sorting (FACS)(Allen, 1990; Baldetorp et al, 1998).

pRb = assay: Phosphorylation of pRb in Rb-/- 3T3 cells; format: cell-based; details: cells that lack cyclin D1-associated kinase activity, low serum
Source text: COS-7 cells were cotransfected with HA-tagged constructs encoding the nuclear receptor coactivators SRC-1, AIB-1 or p300 (Anzick et al., 1997; Chakravarti et al., 1996; Hanstein et al., 1996; Kamei et al., 1996; Onate et al., 1995) together with control plasmid, plasmids directing the synthesis of wild type cyclin D1 or D1 L254/255A mutant (D1-LALA). 12CA5 HA antibodies were used for immunoprecipitation of whole cell extracts prepared from these cells and co-immunoprecipitation of cyclin D1 (mutants) was examined by Western blot analysis using anti-cyclin D1 antibody. […] Precipitation with the anti-cyclin D1 antibody from the total lysate of the cells transfected with cyclin D1 and cyclin D1-LALA was similar. Binding of cyclin D1 and cyclin D1 L254/255A mutant to ER was then investigated. COS-7 cells were transfected with ER expression vector, cyclin D1 (mutant) and/or control plasmids. Monoclonal ER antibodies were used for immunoprecipitation of ER of whole cell extracts prepared from these cells and co-immunoprecipitation of cyclin D1 (mutant) was examined by Western blot analysis using monoclonal cyclin D1 antibodies. […] The activity of cyclin D1 and D1 L254/255A mutant in phosphorylation of pRb in Rb^−/− 3T3 cells was also investigated. […] Differentially phosphorylated species of pRb were detected by Western blotting using the polyclonal pRb antibody (C15, Santa Cruz).

ER [2] = molecular target: T1, ER (Homo sapiens, UniProt P03372); assay: Co-immunoprecipitation with ER from COS-7 cells; format: binding; set-up: expressed in transfected cells; host or cells: COS-7
T1 sequence (P03372 1-595): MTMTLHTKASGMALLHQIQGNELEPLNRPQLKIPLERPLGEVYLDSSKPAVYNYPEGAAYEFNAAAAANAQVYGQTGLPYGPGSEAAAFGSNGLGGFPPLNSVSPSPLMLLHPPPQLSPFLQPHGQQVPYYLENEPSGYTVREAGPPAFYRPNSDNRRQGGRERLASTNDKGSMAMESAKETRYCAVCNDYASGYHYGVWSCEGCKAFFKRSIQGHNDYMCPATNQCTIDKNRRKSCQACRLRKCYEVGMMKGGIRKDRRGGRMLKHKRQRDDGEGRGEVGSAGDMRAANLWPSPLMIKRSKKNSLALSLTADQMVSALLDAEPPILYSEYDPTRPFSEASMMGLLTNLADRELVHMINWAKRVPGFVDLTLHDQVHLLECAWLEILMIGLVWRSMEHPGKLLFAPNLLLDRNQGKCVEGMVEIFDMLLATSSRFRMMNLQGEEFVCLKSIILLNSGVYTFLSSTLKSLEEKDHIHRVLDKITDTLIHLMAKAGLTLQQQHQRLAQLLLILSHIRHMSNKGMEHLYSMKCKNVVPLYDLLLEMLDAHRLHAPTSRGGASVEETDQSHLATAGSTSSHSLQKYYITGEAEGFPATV
Source text: COS-7 cells were cotransfected with HA-tagged constructs encoding the nuclear receptor coactivators SRC-1, AIB-1 or p300 (Anzick et al., 1997; Chakravarti et al., 1996; Hanstein et al., 1996; Kamei et al., 1996; Onate et al., 1995) together with control plasmid, plasmids directing the synthesis of wild type cyclin D1 or D1 L254/255A mutant (D1-LALA). 12CA5 HA antibodies were used for immunoprecipitation of whole cell extracts prepared from these cells and co-immunoprecipitation of cyclin D1 (mutants) was examined by Western blot analysis using anti-cyclin D1 antibody. […] Precipitation with the anti-cyclin D1 antibody from the total lysate of the cells transfected with cyclin D1 and cyclin D1-LALA was similar. Binding of cyclin D1 and cyclin D1 L254/255A mutant to ER was then investigated. COS-7 cells were transfected with ER expression vector, cyclin D1 (mutant) and/or control plasmids. […] Differentially phosphorylated species of pRb were detected by Western blotting using the polyclonal pRb antibody (C15, Santa Cruz).
Cells were lysed in ELB containing 250 mM NaCl, 0.1% NP-40, 50 mM HEPES pH 7.0, 5 mM EDTA and protease inhibitors. […] After blocking with PBS containing 5% milk and 0.1% Tween-20, proteins were detected with monoclonal antibodies directed against cyclin D1 (DCS-6, Neomarkers) and peroxidase-conjugated goat anti-mouse IgG. […]

ER [3] = molecular target: T1, ER; assay: ER activation, ERE-reporter gene, in T47D cells; format: cell-based; set-up: T47D and MCF-7, which contain endogenous wild type ER; endogenous in cells; host or cells: MCF-7; T47D; details: relative low levels of cyclin D1, 17β-estradiol enriched medium
Source text: The ER-containing T47D and MCF-7 breast cancer cells were maintained in 17β-estradiol enriched medium with 10%fetal calf serum after cotransfection with a cyclin D1 L254/255A mutant expression vector and an ERE-reporter gene for testing its effect on ER activation (left panel). ER transactivation in the absence of co-expression of the cyclin D1 mutant was set at 100%.
To get more insight in the role of cyclin D1 in ER transactivation in breast cancers with elevated levels of cyclin D1, we have tested the effect of the mutant cyclin D1 L254/255A on ER activation in two different breast cancer cell lines. This cyclin D1 mutant does bind to ER, but fails both to interact with SRC-1 as shown above and consequently fails to activate ER (FIG. 1B). Therefore, this mutant can act as a dominant negative in cyclin D1-mediated ER transactivation as it binds to ER and fails to recruit coactivators. We tested the effect of this cyclin D1 mutant on ER activation in two breast cancer cell lines, T47D and MCF-7, which contain endogenous wild type ER, but differ in their cyclin D1 protein levels (FIG. 6). […] In contrast, in MCF-7, which contain relative high levels of cyclin D1 (FIG. 6), the cyclin D1 mutant inhibited up to 50% of ER activity. Thus, this dominant negative cyclin D1 mutant preferentially interferes with ER activation in breast cancer cells that have high levels of cyclin D1 protein.

Cyclin D1-LALA: cyclin D1 mutant in which leucines 254 and 255 were mutated to alanines; dominant negative
effect on cell cycle [1]: arrest in the cell cycle at the G1/S checkpoint
Phase of cell cycle G0/G1 ([1]; FACS): 81.9%
Phase of cell cycle G2/M ([1]; FACS): 7.9%
Phase of cell cycle S ([1]; FACS): 10.2%
ability to phosphorylate pRb (pRb): unaffected
ability to bind ER (ER [2]): unaffected
inhibition of ER activity (ER [3]): slight inhibition
